In patent US20240254118A1, “PRMT5 INHIBITORS AND USES THEREOF” (Gilead Sciences, Inc., priority 2022, published 2024):

Legend:
[1] = tested on: SDMA signal (PRMT5 inhibition) in HCT116 MTAP-deleted cells; assay: Symmetric di-methyl arginine image-based high content screen assay (SDMA assay), HCT116 MTAP-deleted; assay type: cell-based; conditions: SDMA assay; for EC50: Homo sapiens, HCT-116, 72 h, 3 days of treatment, cell line not given, taken as HCT116 MTAP-deleted, read-out: EC50 (SDMA assay)
In short: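 Read-out: per-cell mean SDMA immunofluorescence (Alexa Fluor 488 secondary), cells segmented by DAPI on a high-content imager. Compound exposure in HCT116 MTAP-deleted cells lasted until fixation on Day 3; overnight 4° C primary anti-SDMA antibody staining.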

[2] = tested on: HCT116 MTAP-deleted cells; assay: Cell viability assay (CellTiter-Glo, 7 days), HCT116 MTAP-deleted; conditions: Homo sapiens, HCT-116, 168 h
[3] = taken as HCT116 WT versus MTAP-deleted
[4] = taken as HCT116 WT vs MTAP-deleted

Row | Structure (SMILES) | EC50 [1] | EC50 selectivity (SDMA assay) [1, 3] | CC50 [2] | EC50 selectivity (SDMA assay) [1, 4]
1 | CN(CC1CC1)N(Cc1ccc(C(F)(F)F)cn1)C(=O)c1ccc2nc(N)c3cnn(C)c3c2c1 [Example 173, 4-amino-N′-(cyclopropylmethyl)-N′,1-dimethyl-N-[[5-(trifluoromethyl)-2-pyridyl]methyl]pyrazolo[4,3-c]quinoline-8-carbohydrazide] | < 1 nM | 117 | < 100 nM | 
2 | CCC(=O)N(C)N(Cc1ccc(C(F)(F)F)cn1)C(=O)c1cc2c(cc1F)nc(N)c1cnn(C)c12 [Example 42, 4-amino-7-fluoro-N′, 1-dimethyl-N′-propanoyl-N-[[5-(trifluoromethyl)-2-pyridyl]methyl]pyrazolo[4,3-c]quinoline-8-carbohydrazide] | < 1 nM | 14 | < 100 nM | 
3 | CC(=O)N(C)N(Cc1ccc2scnc2c1)C(=O)c1cc2c(cc1F)nc(N)c1cnn(C)c12 [Example 328, N′-acetyl-4-amino-N-(benzo[d]thiazol-5-ylmethyl)-7-fluoro-N′,1-dimethyl-1H-pyrazolo[4,3-c]quinoline-8-carbohydrazide] | 1 to 5 nM | 143 | < 100 nM | 
4 | CN(C(=O)OC(C)(C)C)N(Cc1ccc(C(F)(F)F)cn1)C(=O)c1ccc2nc(N)c3cnn(C)c3c2c1 [Example 137, tert-butyl N-[(4-amino-1-methyl-pyrazolo[4,3-c]quinoline-8-carbonyl)-[[5-(trifluoromethyl)-2-pyridyl]methyl]amino]-N-methyl-carbamate] | 1 to 5 nM | 159 | < 100 nM | 
5 | CC(=O)N(CC(F)F)N(Cc1ccc(C(F)(F)F)cn1)C(=O)c1ccc2nc(N)c3cnn(C)c3c2c1 [Example 115, N′-acetyl-4-amino-N′-(2,2-difluoroethyl)-1-methyl-N-[[5-(trifluoromethyl)-2-pyridyl]methyl]pyrazolo[4,3-c]quinoline-8-carbohydrazide] | 1 to 5 nM | 382 | 100 to 1000 nM | 
6 | [2H]C([2H])(c1ccc(C(F)(F)F)cn1)N(C(=O)c1ccc2nc(N)c3cnn(C)c3c2c1)N(C)C(=O)C1CC1 [Example 256, 4-amino-N′-(cyclopropanecarbonyl)-N′,1-dimethyl-N-((5-(trifluoromethyl)pyridin-2-yl)methyl-d2)-1H-pyrazolo[4,3-c]quinoline-8-carbohydrazide] | < 1 nM | 130 | < 100 nM | 
7 | CC(=O)N(C)N(Cc1ccc2nc(C)sc2c1)C(=O)c1ccc2nc(N)c3cnn(C)c3c2c1 [Example 321, N′-acetyl-4-amino-N′,1-dimethyl-N-((2-methylbenzo[d]thiazol-6-yl)methyl)-1H-pyrazolo[4,3-c]quinoline-8-carbohydrazide] | < 1 nM | 85 | < 100 nM | 
8 | CC(=O)N(C)N(Cc1cccc2c1OC(F)(F)O2)C(=O)c1cc2c(cc1F)nc(N)c1cnn(C)c12 [Example 301, N′-acetyl-4-amino-N-((2,2-difluorobenzo[d][1,3]dioxol-4-yl)methyl)-7-fluoro-N′,1-dimethyl-1H-pyrazolo[4,3-c]quinoline-8-carbohydrazide] | < 1 nM | 106 | < 100 nM | 
9 | CCN(C)N(Cc1ccc(C(F)(F)F)cn1)C(=O)c1ccc2nc(N)c3cnn(C)c3c2c1 [Example 455, 4-amino-N′-ethyl-N′,1-dimethyl-N-((5-(trifluoromethyl)pyridin-2-yl)methyl)-1H-pyrazolo[4,3-c]quinoline-8-carbohydrazide] | < 1 nM |  | < 100 nM | 92
10 | CCC(=O)N(C)N(Cc1ccc(C(F)(F)F)cn1)C(=O)c1ccc2nc(N)c3cnn(C)c3c2c1 [Example 41, 4-amino-N′, 1-dimethyl-N′-propanoyl-N-[[5-(trifluoromethyl)-2-pyridyl]methyl]pyrazolo[4,3-c]quinoline-8-carbohydrazide] | < 1 nM | 46 | < 100 nM | 
11 | Cn1ncc2c(N)nc3ccc(C(=O)N(Cc4ccc(C(F)(F)F)cn4)N4CCC(C)(C)C4=O)cc3c21 [Example 43, 4-amino-N-(3,3-dimethyl-2-oxo-pyrrolidin-1-yl)-1-methyl-N-[[5-(trifluoromethyl)-2-pyridyl]methyl]pyrazolo[4,3-c]quinoline-8-carboxamide] | 1 to 5 nM | 226 | < 100 nM | 
12 | CN(C(=O)c1cccnn1)N(Cc1ccc(C(F)(F)F)cn1)C(=O)c1ccc2nc(N)c3cnn(C)c3c2c1 [Example 184, 14-amino-N′,1-dimethyl-N′-(pyridazine-3-carbonyl)-N-((5-(trifluoromethyl)pyridin-2-yl)methyl)-1H-pyrazolo[4,3-c]quinoline-8-carbohydrazide] | > 5 nM | 195 | > 1000 nM | 
13 | CN1CCN(N(Cc2cn3ccc(Cl)cc3n2)C(=O)c2ccc3nc(N)c4cnn(C)c4c3c2)C1=O [Example 125, 4-Amino-N-[(7-chloroimidazo[1,2-a]pyridin-2-yl)methyl]-1-methyl-N-(3-methyl-2-oxo-imidazolidin-1-yl)pyrazolo[4,3-c]quinoline-8-carboxamide] | 1 to 5 nM | 60 | < 100 nM | 
14 | CC(=O)N(C1COC1)N(Cc1ccc(C(F)(F)F)cc1F)C(=O)c1ccc2nc(N)c3cnn(C)c3c2c1 [Example 340, N′-acetyl-4-amino-N-(2-fluoro-4-(trifluoromethyl)benzyl)-1-methyl-N′-(oxetan-3-yl)-1H-pyrazolo[4,3-c]quinoline-8-carbohydrazide] | < 1 nM | 50 | < 100 nM | 
15 | Cn1ncc2c(N)nc3ccc(C(=O)N(Cc4ccc5nsnc5c4)N4CCCC4=O)cc3c21 [Example 95, 4-amino-N-(2,1,3-benzothiadiazol-5-ylmethyl)-1-methyl-N-(2-oxopyrrolidin-1-yl)pyrazolo[4,3-c]quinoline-8-carboxamide] | < 1 nM | 205 | < 100 nM | 
16 | Cn1ncc2c(N)nc3ccc(C(=O)N(Cc4ccc(C(F)(F)F)cc4F)n4ccnc4)cc3c21 [Example 199, 4-amino-N-[[2-fluoro-4-(trifluoromethyl)phenyl]methyl]-N-imidazol-1-yl-1-methyl-pyrazolo[4,3-c]quinoline-8-carboxamide] | < 1 nM | 26 | < 100 nM | 
17 | CN(C(=O)C1CC1)N(Cc1ccc(C(F)(F)F)cc1)C(=O)c1ccc2nc(N)c3cnn(C)c3c2c1 [Example 343, 4-amino-N′-(cyclopropanecarbonyl)-N′,1-dimethyl-N-(4-(trifluoromethyl)benzyl)-1H-pyrazolo[4,3-c]quinoline-8-carbohydrazide] | < 1 nM | 96 | < 100 nM | 
18 | Cn1ncc2c(N)nc3ccc(C(=O)N(Cc4ccc(C(F)(F)F)cn4)N4CC5(CC5)OC4=O)cc3c21 [Example 190, 4-amino-1-methyl-N-(5-oxo-4-oxa-6-azaspiro[2.4]heptan-6-yl)-N-[[5-(trifluoromethyl)-2-pyridyl]methyl]pyrazolo[4,3-c]quinoline-8-carboxamide] | < 1 nM | 144 | < 100 nM | 
19 | COCC(=O)N(C)N(Cc1ccc(C(F)(F)F)cn1)C(=O)c1ccc2nc(N)c3cnn(C)c3c2c1 [Example 385, 4-amino-N′-(2-methoxyacetyl)-N′,1-dimethyl-N-[[5-(trifluoromethyl)-2-pyridyl]methyl]pyrazolo[4,3-c]quinoline-8-carbohydrazide] | 1 to 5 nM | 52 | < 100 nM | 
20 | CC(=O)N(C)N(Cc1cccc2c1nnn2C)C(=O)c1ccc2nc(N)c3cnn(C)c3c2c1 [Example 289, N′-acetyl-4-amino-N′,1-dimethyl-N-((1-methyl-1H-benzo[d][1,2,3]triazol-4-yl)methyl)-1H-pyrazolo[4,3-c]quinoline-8-carbohydrazide] | 1 to 5 nM | 155 | 100 to 1000 nM | 
21 | CN(C(=O)c1ncco1)N(Cc1ccc(C(F)(F)F)cn1)C(=O)c1ccc2nc(N)c3cnn(C)c3c2c1 [Example 100, N′-(4-amino-1-methyl-1H-pyrazolo[4,3-c]quinoline-8-carbonyl)-N-methyl-N′-((5-(trifluoromethyl)pyridin-2-yl)methyl)oxazole-2-carbohydrazide] | < 1 nM | 7 | < 100 nM | 
22 | CN(c1ccccn1)N(Cc1ccc(C(F)(F)F)cn1)C(=O)c1ccc2nc(N)c3cnn(C)c3c2c1 [Example 25, 4-amino-N′, 1-dimethyl-N′-(2-pyridyl)-N-[[5-(trifluoromethyl)-2-pyridyl]methyl]pyrazolo[4,3-c]quinoline-8-carbohydrazide] | 1 to 5 nM | 26 | < 100 nM | 
23 | CN1CCN(N(Cc2ccc(C(F)(F)F)cn2)C(=O)c2ccc3nc(N)c4cnn(C)c4c3c2)C1=O [Example 32, 4-amino-1-methyl-N-(3-methyl-2-oxo-imidazolidin-1-yl)-N-[[5-(trifluoromethyl)-2-pyridyl]methyl]pyrazolo[4,3-c]quinoline-8-carboxamide] | < 1 nM | 74 | < 100 nM | 
24 | CC(=O)N(C)N(Cc1sc2ccccc2c1Br)C(=O)c1ccc2nc(N)c3cnn(C)c3c2c1 [Example 444, N′-acetyl-4-amino-N-((3-bromobenzo[b]thiophen-2-yl)methyl)-N′,1-dimethyl-1H-pyrazolo[4,3-c]quinoline-8-carbohydrazide] | < 1 nM |  | < 100 nM | 117
